Assay results from patent US5674867A, “Indolocarbazole derivatives and therapeutic method for stimulating megakaicyocyte production” (Kyowa Hakko Kogyo Co., Ltd., priority 1992, dated 1997).
“And” between values parts separate entries of the source, which are not always exact repeats. Identical values can stand only once.

Experiments:
[1] = test system: bone marrow cells (megakaryocyte colony formation); test: Megakaryocyte colony formation-stimulating activity (ACHE-stained colonies, bone marrow cells with IL-3); type: cell-based, BALB/c mouse; conditions: with IL-3 100 U/ml, 7 days
Protocol: An eight-weeks-old BALB/c mouse was killed. Its femurs and cervical vertebrae were taken out, and both end sections thereof were cut off. Bone marrow cells were collected from the pieces cut off from the femurs and cervical vertebrae using a syringe containing IMDM (430-2200EA prepared by Gibco Co.), and then blown into a test tube. The test tube was allowed to stand for 5 minutes, and the supernatant was collected with a pipet. To a reaction mixture comprising the bone marrow cells (50,000 cells), bovine serum albumin (2%: A4508 made by Sigma Co.), transferrin (600 μg/ml 652202 made by Boehringer Mannheim Co.), IL-3 (100 U/ml), cholesterol (16 μg/ml: 036-0641 made by Wako Co.) and agar (0.6%: 0142-02 made by Difco Laboratories) were separately added the test compounds at various concentrations, and 1 ml each of the mixtures was put into a 35-mm dish (Lux Co.), followed by incubation under the conditions of 37° C., 5% CO2 and a humidity of 95% or more for 7 days. Separately, IL-3 alone was added to the bone marrow cells to prepare a control, whereas a positive control was prepared by adding 200 U/ml IL-6 to the above-mentioned reaction mixture. After the incubation was completed, the agar was dried over a filter paper (1001-055 made by Whatman Co.) and then fixed with 2.5% glutaraldehyde, followed by acetylcholinesterase staining (ACHE staining).
The ACHE staining was carried out by the method described below.
ACHE staining: To each sample was added a solution comprising 0.67 mg/ml acetylthiocholine iodide, 2.94 mg/ml sodium citrate, 7.5 mg/ml copper (II) sulfate and 1.65 mg/ml potassium ferricyanide, and the mixture was allowed to stand at room temperature in the dark for 4-6 hours.
A group of 4 or more megakaryocytes which were stained reddish brown was regarded as a colony, and the number of colonies per dish was calculated using a microscope. The results are shown in Table 2 as relative values to the control.

[2] = Acute toxicity test; conditions: mouse, in vivo, ip; male DDY mice, intraperitoneal, survival after 24 hours; read-out: LD50 (50% survival dose)
Protocol: To 6-weeks-old male DDY mice (3 per group) was intraperitoneally administered 0.2 ml of a solution of a test compound in a phosphate-buffered physiological saline. The 50% survival doses (LD50) were calculated from the survival rate after 24 hours. The LD50 for Compounds I-1, 17, 25, 26, 30-33, 35, 40 and 52 was >1 mg/kg, while that for all the other compounds was >30 mg/kg.

[3] = test system: platelets; test: Platelet production-stimulating activity in mice; type: in vivo, BALB/c mice; conditions: 7.5 mg/kg/day × 5, caudal vein; for Number of platelets, individual mouse: 7.5 mg/kg/day
Protocol: BALB/c mice (male, 7-weeks-old) were divided into 2 groups. To one group (control group) was administered a solvent (1% lactic acid, 4% aqueous solution of glucose) alone. On the other hand, the test group (Compound I-1-administered group) received 0.2 ml of a solution of Compound I-1 in the above solvent at a dose of 7.5 mg/kg via the caudal vein once a day for 5 days (Day 1-Day 5). On the day before the administration (Day 0) and the seventh day after the start of administration (Day 7), the ninth day (Day 9), the 14th day (Day 14) and the 21st day (Day 21), 20 μl of blood was collected from the fundus oculi vein of the mice of each group, and the number of the platelets was counted with a microcell counter (Type CC-180A made by Toa Iryo Denshi Co.).

Row | Compound | LD50 at 24 h [2] | Relative value (megakaryocyte colonies, control = 100) ([1]; 1 nM) | Relative value (megakaryocyte colonies, control = 100) ([1]; 0.1 nM) | Relative value (megakaryocyte colonies, control = 100) ([1]; 10 nM) | other results
1 | COC(=O)C1(O)CC2OC1(C)n1c3ccccc3c3c4c(c5c6ccccc6n2c5c31)C(=O)NC4 (stereo not drawn) [Compound I-35, K-252a] | > 1 mg/kg |  |  |  | Relative value (megakaryocyte colonies, control = 100) ([1]; 1.0 pM): 130; Relative value (megakaryocyte colonies, control = 100) ([1]; 10 pM): 140
2 | CNC1CC2OC(C)(C1OC)n1c3ccccc3c3c4c(c5c6ccccc6n2c5c31)C(=O)NC4O (stereo not drawn) [Compound I-1] | > 1 mg/kg | 127 |  |  | Number of platelets, individual mouse ([3]; Day 0 (day before administration)): 92.6 × 10^4 /mm^3 and 90.5 × 10^4 /mm^3 and 94.2 × 10^4 /mm^3 and 117.6 × 10^4 /mm^3 and 111.7 × 10^4 /mm^3 and 95.5 × 10^4 /mm^3; Number of platelets (Average) ([3]; Day 0 (day before administration), control average 110.9): 100.4 × 10^4 /mm^3; % Relative value (number of platelets, Day 0 = 100) ([3]; Day 0, control 100): 100%; Number of platelets, individual mouse ([3]; Day 7): 103.1 × 10^4 /mm^3 and 91.8 × 10^4 /mm^3 and 119.4 × 10^4 /mm^3 and 155.7 × 10^4 /mm^3 and 136.3 × 10^4 /mm^3 and 111.2 × 10^4 /mm^3; % Relative value (number of platelets, Day 0 = 100) ([3]; Day 7, control 120.3): 119.1%; Number of platelets (Average) ([3]; Day 7, control average 133.4): 119.6 × 10^4 /mm^3; Number of platelets, individual mouse ([3]; Day 9): 125.3 × 10^4 /mm^3 and 160.0 × 10^4 /mm^3 and 144.5 × 10^4 /mm^3 and 136.1 × 10^4 /mm^3 and 146.8 × 10^4 /mm^3; % Relative value (number of platelets, Day 0 = 100) ([3]; Day 9, control 103.2): 144.9%; Number of platelets (Average) ([3]; Day 9, control average 114.5): 145.5 × 10^4 /mm^3; Number of platelets, individual mouse ([3]; Day 14): 125.3 × 10^4 /mm^3 and 106.4 × 10^4 /mm^3 and 121.1 × 10^4 /mm^3 and 145.4 × 10^4 /mm^3 and 112.3 × 10^4 /mm^3 and 115.0 × 10^4 /mm^3; % Relative value (number of platelets, Day 0 = 100) ([3]; Day 14, control 98.4): 120.4%; Number of platelets (Average) ([3]; Day 14, control average 109.1): 120.9 × 10^4 /mm^3; Number of platelets, individual mouse ([3]; Day 21): 133.9 × 10^4 /mm^3 and 202.7 × 10^4 /mm^3 and 153.0 × 10^4 /mm^3 and 139.6 × 10^4 /mm^3 and 135.5 × 10^4 /mm^3 and 163.9 × 10^4 /mm^3; % Relative value (number of platelets, Day 0 = 100) ([3]; Day 21, control 103.1): 154.2%; Number of platelets (Average) ([3]; Day 21, control average 114.3): 154.8 × 10^4 /mm^3
3 | CNC1CC2OC(C)(C1OC)n1c3ccccc3c3c4c(c5c6cc(C(C)=O)ccc6n2c5c31)C(=O)NC4 (stereo not drawn) [Compound I-30] | > 1 mg/kg | 119 | 111 | 117 | 
4 | CNC1CC2OC(C)(C1OC)n1c3ccc(C=O)cc3c3c4c(c5c6cc(C=O)ccc6n2c5c31)C(=O)NC4 (stereo not drawn) [Compound I-32] | > 1 mg/kg | 94 | 76 | 109 | 
5 | CNC1CC2OC(C)(C1OC)n1c3ccc(C(C)=O)cc3c3c4c(c5c6cc(C(C)=O)ccc6n2c5c31)C(=O)NC4 (stereo not drawn) [Compound I-31] | > 1 mg/kg | 94 | 76 | 109 | 
6 | COC1C(N(C)C)CC2OC1(C)n1c3ccccc3c3c4c(c5c6ccccc6n2c5c31)C(=O)NC4 (stereo not drawn) [Compound I-25] | > 1 mg/kg | 124 | 119 | 100 | 
7 | CNC1CC2OC(C)(C1OC)n1c3ccccc3c3c4c(c5c6cc(O)ccc6n2c5c31)C(=O)NC4 (stereo not drawn) [Compound I-52] | > 1 mg/kg |  |  |  | 
8 | COC(=O)C1(OC)CC2OC1(C)n1c3ccc(Br)cc3c3c4c(c5c6cc(Br)ccc6n2c5c31)C(=O)NC4 (stereo not drawn) [Compound I-40] | > 1 mg/kg | 125 | 109 | 114 | 
9 | CN[C@@H]1C[C@H]2O[C@@](C)([C@@H]1OC)n1c3ccccc3c3c4c(c5c6ccccc6n2c5c31)C(=O)NC4 [Compound I-17, staurosporine] | > 1 mg/kg |  |  |  | Relative value (megakaryocyte colonies, control = 100) ([1]; 1.0 pM): 119; Relative value (megakaryocyte colonies, control = 100) ([1]; 10 pM): 107
10 | CCCN(C)C1CC2OC(C)(C1OC)n1c3ccccc3c3c4c(c5c6ccccc6n2c5c31)C(=O)NC4 (stereo not drawn) [Compound I-26] | > 1 mg/kg | 121 | 108 | 111 | 
11 | CCCOc1ccc2c(c1)c1c3c(c4c5ccccc5n5c4c1n2C1CC(NC)C(OC)C5(C)O1)CNC3=O (stereo not drawn) [Compound I-33] | > 1 mg/kg | 114 | 101 | 105 | 
12 | COC(=O)C1(OC(C)=O)CC2OC1(C)n1c3ccccc3c3c4c(c5c6ccccc6n2c5c31)C(=O)N(C(C)=O)C4 (stereo not drawn) [Compound I-8] |  | 118 |  |  | Relative value (megakaryocyte colonies, control = 100) ([1]; 0.01 nM): 95.6; Relative value (megakaryocyte colonies, control = 100) ([1]; 100 nM): 89.6
13 | IL-6: hematopoietic factor which stimulates the production of blood platelets; positive control |  |  |  |  | Relative value (megakaryocyte colonies, control = 100) ([1]; 200 U/ml, positive control): 117
14 | COC1C(N(C)C)CC2OC1(C)n1c3ccccc3c3c4c(c5c6ccccc6n2c5c31)C(=O)N(C)C4 (stereo not drawn) [Compound I-49] |  | 128 | 122 |  | 
15 | CNC1CC2OC(C)(C1OC)n1c3ccccc3c3c4c(c5c6ccccc6n2c5c31)C(=O)N(C)C4 (stereo not drawn) [Compound I-2] |  |  |  |  | Relative value (megakaryocyte colonies, control = 100) ([1]; 0.01 nM): 125; Relative value (megakaryocyte colonies, control = 100) ([1]; 1 nM, 10080 min, 0.001 µM): 168
